According to US12077503B2, “Substituted cyclic amides and their use as herbicides” (FMC CORPORATION, priority 2015, dated 2024):

Key:
Assay type in all cases: in vivo
[1] = test system: ivy-leaved morning glory (Ipomoea hederacea); assay: Test G Pre-Emergence Protocol; settings: Ipomoea, pre-emergence, 312 h, evaluated after 13 days; for pest or weed control at 15.625 g/ha: 15.625 g ai/ha; for pest or weed control at 15.625 g/ha / pest or weed control at 250 g/ha: read-out: Morningglory, Ivy-leaved damage rating (100=total damage to plant; 0=no damage to plant); for pest or weed control at 62.5 g/ha: 62.5 g ai/ha, 100=total damage to plant, 0=no damage to plant, read-out: Morningglory, Ivy-leaved damage rating; for pest or weed control at 250 g/ha: 250 g ai/ha
Procedure, shortened: (§1)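 Pre-emergence spray, 15.625/62.5/250 g/ha, vehicle acetone:water 50:50 + 0.5% Tween 20, applied 1 d after sowing. Glasshouse 24/16° C, 14 h light, 65% RH, watered twice daily. Visual damage rating at 13 d, 0–100 scale.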

corn (Zea mays) [2] = assay: Test G Pre-Emergence Protocol; settings: Zea mays, pre-emergence, 312 h, evaluated after 13 days; for plant injury at 15.625 g/ha: 15.625 g ai/ha; for plant injury at 15.625 g/ha / plant injury at 250 g/ha: read-out: Corn damage rating (100=total damage to plant; 0=no damage to plant); for plant injury at 62.5 g/ha: 62.5 g ai/ha, 100=total damage to plant, 0=no damage to plant, read-out: Corn damage rating; for plant injury at 250 g/ha: 250 g ai/ha
Procedure, shortened: as §1

[3] = test system: velvetleaf (Abutilon theophrasti); assay: Test G Pre-Emergence Protocol; settings: Abutilon theophrasti, pre-emergence, 312 h, evaluated after 13 days; for pest or weed control at 15.625 g/ha: 15.625 g ai/ha; for pest or weed control at 15.625 g/ha / pest or weed control at 250 g/ha: read-out: Velvetleaf damage rating (100=total damage to plant; 0=no damage to plant); for pest or weed control at 62.5 g/ha: 62.5 g ai/ha, 100=total damage to plant, 0=no damage to plant, read-out: Velvetleaf damage rating; for pest or weed control at 250 g/ha: 250 g ai/ha
Procedure, shortened: as §1

[4] = test system: barnyardgrass (Echinochloa crus-galli); assay: Test G Pre-Emergence Protocol; settings: Echinochloa crus-galli, pre-emergence, 312 h, evaluated after 13 days; for pest or weed control at 15.625 g/ha: 15.625 g ai/ha; for pest or weed control at 15.625 g/ha / pest or weed control at 250 g/ha: read-out: Barnyardgrass damage rating (100=total damage to plant; 0=no damage to plant); for pest or weed control at 62.5 g/ha: 62.5 g ai/ha, 100=total damage to plant, 0=no damage to plant, read-out: Barnyardgrass damage rating; for pest or weed control at 250 g/ha: 250 g ai/ha
Procedure, shortened: as §1

[5] = test system: giant foxtail (Setaria faberi); assay: Test G Pre-Emergence Protocol; settings: Setaria faberi, pre-emergence, 312 h, evaluated after 13 days; for pest or weed control at 15.625 g/ha: 15.625 g ai/ha; for pest or weed control at 15.625 g/ha / pest or weed control at 250 g/ha: read-out: Foxtail, Giant damage rating (100=total damage to plant; 0=no damage to plant); for pest or weed control at 62.5 g/ha: 62.5 g ai/ha, 100=total damage to plant, 0=no damage to plant, read-out: Foxtail, Giant damage rating; for pest or weed control at 250 g/ha: 250 g ai/ha
Procedure, shortened: as §1

[6] = test system: redroot pigweed (Amaranthus retroflexus); assay: Test G Pre-Emergence Protocol; settings: Amaranthus retroflexus, pre-emergence, 312 h, evaluated after 13 days; for pest or weed control at 15.625 g/ha: 15.625 g ai/ha; for pest or weed control at 15.625 g/ha / pest or weed control at 250 g/ha: read-out: Pigweed, Redroot damage rating (100=total damage to plant; 0=no damage to plant); for pest or weed control at 62.5 g/ha: 62.5 g ai/ha, 100=total damage to plant, 0=no damage to plant, read-out: Pigweed, Redroot damage rating; for pest or weed control at 250 g/ha: 250 g ai/ha
Procedure, shortened: as §1

[7] = test system: ivy-leaved morning glory (Ipomoea hederacea); assay: Test G Post-Emergence Protocol; settings: Ipomoea, post-emergence, 312 h, read-out: Morningglory, Ivy-leaved damage rating; for pest or weed control at 15.625 g/ha: 15.625 g ai/ha, evaluated after 13 days (100=total damage to plant; 0=no damage to plant); for pest or weed control at 62.5 g/ha: 62.5 g ai/ha; for pest or weed control at 62.5 g/ha / pest or weed control at 250 g/ha: evaluated after 13 days, 100=total damage to plant, 0=no damage to plant; for pest or weed control at 250 g/ha: 250 g ai/ha
Procedure, shortened: (§2)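 Post-emergence herbicidal damage, scored visually 0–100 at 13 days. Application at 15.625, 62.5 or 250 g/ha onto 8-day-old plants grown under glasshouse control.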

corn (Zea mays) [8] = assay: Test G Post-Emergence Protocol; settings: Zea mays, post-emergence, 312 h, read-out: Corn damage rating; for plant injury at 15.625 g/ha: 15.625 g ai/ha, evaluated after 13 days (100=total damage to plant; 0=no damage to plant); for plant injury at 62.5 g/ha: 62.5 g ai/ha; for plant injury at 62.5 g/ha / plant injury at 250 g/ha: evaluated after 13 days, 100=total damage to plant, 0=no damage to plant; for plant injury at 250 g/ha: 250 g ai/ha
Procedure, shortened: as §2

[9] = test system: velvetleaf (Abutilon theophrasti); assay: Test G Post-Emergence Protocol; settings: Abutilon theophrasti, post-emergence, 312 h, read-out: Velvetleaf damage rating; for pest or weed control at 15.625 g/ha: 15.625 g ai/ha, evaluated after 13 days (100=total damage to plant; 0=no damage to plant); for pest or weed control at 62.5 g/ha: 62.5 g ai/ha; for pest or weed control at 62.5 g/ha / pest or weed control at 250 g/ha: evaluated after 13 days, 100=total damage to plant, 0=no damage to plant; for pest or weed control at 250 g/ha: 250 g ai/ha
Procedure, shortened: as §2

[10] = test system: barnyardgrass (Echinochloa crus-galli); assay: Test G Post-Emergence Protocol; settings: Echinochloa crus-galli, post-emergence, 312 h, read-out: Barnyardgrass damage rating; for pest or weed control at 15.625 g/ha: 15.625 g ai/ha, evaluated after 13 days (100=total damage to plant; 0=no damage to plant); for pest or weed control at 62.5 g/ha: 62.5 g ai/ha; for pest or weed control at 62.5 g/ha / pest or weed control at 250 g/ha: evaluated after 13 days, 100=total damage to plant, 0=no damage to plant; for pest or weed control at 250 g/ha: 250 g ai/ha
Procedure, shortened: as §2

[11] = test system: giant foxtail (Setaria faberi); assay: Test G Post-Emergence Protocol; settings: Setaria faberi, post-emergence, 312 h, read-out: Foxtail, Giant damage rating; for pest or weed control at 15.625 g/ha: 15.625 g ai/ha, evaluated after 13 days (100=total damage to plant; 0=no damage to plant); for pest or weed control at 62.5 g/ha: 62.5 g ai/ha; for pest or weed control at 62.5 g/ha / pest or weed control at 250 g/ha: evaluated after 13 days, 100=total damage to plant, 0=no damage to plant; for pest or weed control at 250 g/ha: 250 g ai/ha
Procedure, shortened: as §2

[12] = test system: redroot pigweed (Amaranthus retroflexus); assay: Test G Post-Emergence Protocol; settings: Amaranthus retroflexus, post-emergence, 312 h, read-out: Pigweed, Redroot damage rating; for pest or weed control at 15.625 g/ha: 15.625 g ai/ha, evaluated after 13 days (100=total damage to plant; 0=no damage to plant); for pest or weed control at 62.5 g/ha: 62.5 g ai/ha; for pest or weed control at 62.5 g/ha / pest or weed control at 250 g/ha: evaluated after 13 days, 100=total damage to plant, 0=no damage to plant; for pest or weed control at 250 g/ha: 250 g ai/ha
Procedure, shortened: as §2

Row | Compound | pest or weed control at 15.625 g/ha [1] [%] | pest or weed control at 62.5 g/ha [1] [%] | plant injury at 15.625 g/ha (corn (Zea mays) [2]) [%] | plant injury at 62.5 g/ha (corn (Zea mays) [2]) [%] | plant injury at 250 g/ha (corn (Zea mays) [2]) [%] | pest or weed control at 15.625 g/ha [3] [%] | pest or weed control at 62.5 g/ha [3] [%] | pest or weed control at 250 g/ha [3] [%] | pest or weed control at 15.625 g/ha [4] [%] | pest or weed control at 62.5 g/ha [4] [%] | pest or weed control at 250 g/ha [4] [%] | pest or weed control at 15.625 g/ha [5] [%] | pest or weed control at 62.5 g/ha [5] [%] | pest or weed control at 250 g/ha [5] [%] | pest or weed control at 15.625 g/ha [6] [%] | pest or weed control at 62.5 g/ha [6] [%] | pest or weed control at 250 g/ha [6] [%] | pest or weed control at 15.625 g/ha [7] [%] | pest or weed control at 62.5 g/ha [7] [%] | pest or weed control at 250 g/ha [7] [%] | also measured
1 | CCCOc1cc(C2CN(C)C(=O)C2C(=O)Nc2cccc(F)c2F)cc(C(F)(F)F)c1 (centres unmarked) [Compound 1725] | 0 | 0 | 0 | 0 | 30 | 0 | 0 | 0 | 20 | 50 | 70 | 20 | 50 | 80 | 0 | 0 | 20 | 30 | 70 | 70 | pest or weed control at 250 g/ha [1]: 0%; plant injury at 15.625 g/ha (corn (Zea mays) [8]): 10%; plant injury at 62.5 g/ha (corn (Zea mays) [8]): 0%; plant injury at 250 g/ha (corn (Zea mays) [8]): 70%; pest or weed control at 15.625 g/ha [9]: 0%; pest or weed control at 62.5 g/ha [9]: 0%; pest or weed control at 250 g/ha [9]: 10%; pest or weed control at 15.625 g/ha [10]: 0%; pest or weed control at 62.5 g/ha [10]: 30%; pest or weed control at 250 g/ha [10]: 70%; pest or weed control at 15.625 g/ha [11]: 0%; pest or weed control at 62.5 g/ha [11]: 70%; pest or weed control at 250 g/ha [11]: 80%; pest or weed control at 15.625 g/ha [12]: 0%; pest or weed control at 62.5 g/ha [12]: 10%; pest or weed control at 250 g/ha [12]: 60%
2 | CN1C[C@H](c2cc(C(C)(C)C)ncn2)[C@@H](C(=O)Nc2ccc(F)c(F)c2F)C1=O (racemic) [Compound 1668] | 0 | 0 | 0 | 0 | 0 | 0 | 0 | 0 | 0 | 0 | 20 | 0 | 0 | 20 | 0 | 0 | 0 | 0 | 0 | 0 | plant injury at 15.625 g/ha (corn (Zea mays) [8]): 0%; plant injury at 62.5 g/ha (corn (Zea mays) [8]): 0%; plant injury at 250 g/ha (corn (Zea mays) [8]): 0%; pest or weed control at 15.625 g/ha [9]: 0%; pest or weed control at 62.5 g/ha [9]: 0%; pest or weed control at 250 g/ha [9]: 0%; pest or weed control at 15.625 g/ha [10]: 0%; pest or weed control at 62.5 g/ha [10]: 0%; pest or weed control at 250 g/ha [10]: 0%; pest or weed control at 15.625 g/ha [11]: 0%; pest or weed control at 62.5 g/ha [11]: 0%; pest or weed control at 250 g/ha [11]: 10%; pest or weed control at 15.625 g/ha [12]: 0%; pest or weed control at 62.5 g/ha [12]: 0%; pest or weed control at 250 g/ha [12]: 0%
3 | CN1C[C@H](c2ccc(C(F)(F)F)cc2)[C@@H](C(=O)Nc2cncnc2Cl)C1=O (racemic) [Compound 1748] | 0 | 0 | 0 | 0 | 0 | 0 | 0 | 0 | 0 | 0 | 0 | 0 | 0 | 0 | 0 | 0 | 0 | 0 | 0 | 0 | pest or weed control at 250 g/ha [1]: 0%; plant injury at 15.625 g/ha (corn (Zea mays) [8]): 0%; plant injury at 62.5 g/ha (corn (Zea mays) [8]): 0%; plant injury at 250 g/ha (corn (Zea mays) [8]): 0%; pest or weed control at 15.625 g/ha [9]: 0%; pest or weed control at 62.5 g/ha [9]: 0%; pest or weed control at 250 g/ha [9]: 0%; pest or weed control at 15.625 g/ha [10]: 0%; pest or weed control at 62.5 g/ha [10]: 0%; pest or weed control at 250 g/ha [10]: 0%; pest or weed control at 15.625 g/ha [11]: 0%; pest or weed control at 62.5 g/ha [11]: 0%; pest or weed control at 250 g/ha [11]: 0%; pest or weed control at 15.625 g/ha [12]: 0%; pest or weed control at 62.5 g/ha [12]: 0%; pest or weed control at 250 g/ha [12]: 0%
